pIC50: −log10 of the molar value.
Biological target: T1, Recombinant human KIF18A (1-467 His-tagged) protein (Homo sapiens, UniProt Q8NI77)
T1 construct: Recombinant human KIF18A (1-467 His-tagged) protein; His; made in house
Experiment: KIF18A Enzyme Assay: microtubule-stimulated ATPase activity (ADP-Glo)
Type: biochemical
Details: 30 nM KIF18A, 30 μg/mL pig microtubules, 75 μM ATP, ADP-Glo luminescence
Excerpt: KIF18A Enzyme Assay: Microtubule-stimulated ATPase activity assay is used to measure KIF18A enzyme activity after treatment with compound. Compounds were 2-fold serially diluted in DMSO (Sigma Inc) over 22-point concentration range. Recombinant human KIF18A (1-467 His-tagged) protein was expressed using a baculovirus system and purified by affinity chromatography by Amgen Inc. Concentrations of KIF18A protein, microtubules (MT), and ATP in the reaction were optimized for standardized homogenous enzyme assay using ADP-Glo™ Kinase/ATPase Assay Kit (Promega Inc). The assay measures ADP formed from the ATPase reaction. Prepare reaction buffer [(15 mM Tris, pH 7.5 (Teknova Inc), 10 mM MgCl2 (IT Baker Inc), 0.01% Pluronic F-68 (Life Technologies Inc), 1 μM Taxol (Cytoskeleton Inc), and 30 μg/mL pig microtubules (Cytoskeleton Inc)]. Add compound and KIF18A protein (30 nM) to prepared reaction buffer and incubated for 15 minutes at room temperature, next add ATP (at Kin, 75 μM) to the reaction mixture and incubated for an additional 15 minutes at room temperature. Mix 5 μl of ADP-Glo™ Reagent and 2.5 μl of the reaction mixture and incubate for 40 minutes at room temperature. Add 10 μl ADP-Glo™ Detection Reagent and incubate for 40 minutes at room temperature. Read luminescence using EnVision microplate reader with ultra-luminescence module (Perkin Elmer Inc). Concentration-response curve-fitting and IC50 determination was performed using Genedata Screener Software (Standard 15.0.1, Genedata Inc) with a four-parameter logistic regression fit model.
Table A provides data for compounds exemplified in the present application and priority document thereof, as representative compounds of the present invention, as follows: chemical name (as named by either ACD software or ChemDraw (Professional 15.0)) and biological data (IC50 in μM). Ex. # refers to Example No.

T1 sequence (Q8NI77 1-467): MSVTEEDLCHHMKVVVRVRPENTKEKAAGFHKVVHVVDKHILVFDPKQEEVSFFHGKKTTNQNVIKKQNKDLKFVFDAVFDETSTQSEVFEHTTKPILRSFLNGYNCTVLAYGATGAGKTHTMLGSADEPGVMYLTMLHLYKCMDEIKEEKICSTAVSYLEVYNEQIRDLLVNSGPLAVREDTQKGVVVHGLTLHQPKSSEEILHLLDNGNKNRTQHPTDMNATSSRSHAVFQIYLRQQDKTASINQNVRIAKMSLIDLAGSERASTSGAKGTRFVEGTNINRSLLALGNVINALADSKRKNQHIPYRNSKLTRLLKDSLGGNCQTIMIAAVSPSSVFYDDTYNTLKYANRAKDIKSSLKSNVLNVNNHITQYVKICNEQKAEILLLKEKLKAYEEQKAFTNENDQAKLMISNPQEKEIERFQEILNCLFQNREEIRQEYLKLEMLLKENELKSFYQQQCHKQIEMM
T1 sequence (P02550 whole entry partner): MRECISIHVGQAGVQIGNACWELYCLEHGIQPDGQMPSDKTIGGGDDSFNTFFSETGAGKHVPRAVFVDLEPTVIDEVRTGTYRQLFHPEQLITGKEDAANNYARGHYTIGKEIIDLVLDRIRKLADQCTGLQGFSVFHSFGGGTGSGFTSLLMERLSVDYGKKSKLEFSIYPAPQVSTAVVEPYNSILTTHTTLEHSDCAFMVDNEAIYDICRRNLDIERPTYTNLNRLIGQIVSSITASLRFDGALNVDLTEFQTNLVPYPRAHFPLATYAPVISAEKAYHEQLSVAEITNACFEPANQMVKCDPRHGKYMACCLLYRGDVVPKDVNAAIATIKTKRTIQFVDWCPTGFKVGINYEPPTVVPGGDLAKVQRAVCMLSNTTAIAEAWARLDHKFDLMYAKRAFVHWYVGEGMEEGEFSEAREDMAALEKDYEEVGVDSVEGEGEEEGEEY
T1 sequence (P02554 whole entry partner): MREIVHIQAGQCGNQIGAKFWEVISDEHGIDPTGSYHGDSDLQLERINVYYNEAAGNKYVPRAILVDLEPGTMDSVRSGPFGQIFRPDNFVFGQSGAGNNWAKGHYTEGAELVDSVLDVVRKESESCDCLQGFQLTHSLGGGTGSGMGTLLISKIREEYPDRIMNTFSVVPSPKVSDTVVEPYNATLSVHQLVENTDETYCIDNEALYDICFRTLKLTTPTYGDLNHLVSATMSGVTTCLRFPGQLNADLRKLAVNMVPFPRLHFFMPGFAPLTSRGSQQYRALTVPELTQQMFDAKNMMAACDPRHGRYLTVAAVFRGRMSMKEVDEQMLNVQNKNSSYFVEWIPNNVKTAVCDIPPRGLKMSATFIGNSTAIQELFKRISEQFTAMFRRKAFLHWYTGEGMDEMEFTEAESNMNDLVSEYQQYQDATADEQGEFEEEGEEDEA

| Structure (SMILES) | pIC50 |
| --- | --- |
| CC(C)(C)NS(=O)(=O)c1cccc(NC(=O)c2ccc(NC(C)(C)CO)nc2N2CCC3(CC2)CC3)n1 [Example 123, 2-(6-azaspiro[2.5]oct-6-yl)-N-(6-(tert-butylsulfamoyl)-2-pyridinyl)-6-((2-hydroxy-1,1-dimethylethyl)amino)-3-pyridinecarboxamide] | 7.19 |
| COC1CCN(c2cccc(NC(=O)c3ccc(NC(C)(C)CO)nc3N3CCC4(CC3)CC4)n2)C1 (stereo not drawn) [Example 124, 6-((1-hydroxy-2-methylpropan-2-yl)amino)-N-(6-(3-methoxypyrrolidin-l-yl)pyridin-2-yl)-2-(6-azaspiro[2.5]octan-6-yl)nicotinamide] | 6.39 |
| CC(C)(CO)Nc1ccc(C(=O)Nc2cccc(N3CCCC3)n2)c(N2CCC3(CC2)CC3)n1 [Example 125, 2-(6-azaspiro[2.5]oct-6-yl)-6-((2-hydroxy-1,1-dimethylethyl)amino)-N-(6-(1-pyrrolidinyl)-2-pyridinyl)-3-pyridinecarboxamide] | 6.87 |
| CC1CN(c2cccc(NC(=O)c3ccc(NC(C)(C)CO)nc3N3CCC4(CC3)CC4)n2)CCO1 (centres unmarked) [Example 126, 6-((1-hydroxy-2-methylpropan-2-yl)amino)-N-(6-(2-methylmorpholino)pyridin-2-yl)-2-(6-azaspiro[2.5]octan-6-yl)nicotinamide] | 7.22 |
| CC1(C)CCN(c2cccc(NC(=O)c3ccc(NC(C)(C)CO)nc3N3CCC4(CC3)CC4)n2)C1 [Example 128, 2-(6-azaspiro[2.5]oct-6-yl)-N-(6-(3,3-dimethyl-l-pyrrolidinyl)-2-pyridinyl)-6-((2-hydroxy-1,1-dimethylethyl)amino)-3-pyridinecarboxamide] | 7.02 |
| CC(C)(CO)Nc1ccc(C(=O)Nc2cccc(N3CCOC(C)(C)C3)n2)c(N2CCC3(CC2)CC3)n1 [Example 130, 2-(6-azaspiro[2.5]oct-6-yl)-N-(6-(2,2-dimethyl-4-morpholinyl)-2-pyridinyl)-6-((2-hydroxy-1,1-dimethylethyl)amino)-3-pyridinecarboxamide] | 6.76 |
| CC(C)(CO)Nc1ccc(C(=O)Nc2cccc(N3CCC(O)C3)n2)c(N2CCC3(CC2)CC3)n1 (centres unmarked) [Example 131, 6-((1-hydroxy-2-methylpropan-2-yl)amino)-N-(6-(3-hydroxypyrrolidin-1-yl)pyridin-2-yl)-2-(6-azaspiro[2.5]octan-6-yl)nicotinamide] | 6.53 |
| CC(C)(CO)Nc1ccc(C(=O)Nc2cccc(N3CCCC3=O)n2)c(N2CCC3(CC2)CC3)n1 [Example 134, 2-(6-azaspiro[2.5]oct-6-yl)-6-((2-hydroxy-1,1-dimethylethyl)amino)-N-(6-(2-oxo-1-pyrrolidinyl)-2-pyridinyl)-3-pyridinecarboxamide] | 6.69 |
| CC(C)(CO)Nc1ccc(C(=O)Nc2cccc(C3=CCOCC3)n2)c(N2CCC3(CC2)CC3)n1 [Example 138, 2-(6-azaspiro[2.5]oct-6-yl)-N-(6-(3,6-dihydro-2H-pyran-4-yl)-2-pyridinyl)-6-((1-hydroxy-2-methyl-2-propanyl)amino)-3-pyridinecarboxamide] | 7.08 |
| C[C@H]1CCN(c2cccc(NC(=O)c3ccc(NC(C)(C)CO)nc3N3CCC4(CC3)CC4)n2)C1 [Example 139, 2-(6-azaspiro[2.5]oct-6-yl)-6-((1-hydroxy-2-methyl-2-propanyl)amino)-N-(6-((3S)-3-methyl-1-pyrrolidinyl)-2-pyridinyl)-3-pyridinecarboxamide] | 7.05 |
| CC(C)(CO)Nc1ccc(C(=O)Nc2cccc(N3CC(F)C3)n2)c(N2CCC3(CC2)CC3)n1 [Example 144, 2-(6-azaspiro[2.5]oct-6-yl)-N-(6-(3-fluoro-1-azetidinyl)-2-pyridinyl)-6-((1-hydroxy-2-methyl-2-propanyl)amino)-3-pyridinecarboxamide] | 7.12 |
| COC1CN(c2cccc(NC(=O)c3ccc(NC(C)(C)CO)nc3N3CCC4(CC3)CC4)n2)C1 [Example 145, 2-(6-azaspiro[2.5]oct-6-yl)-6-((1-hydroxy-2-methyl-2-propanyl)amino)-N-(6-(3-methoxy-1-azetidinyl)-2-pyridinyl)-3-pyridinecarboxamide] | 6.77 |

More lines, in order of rising pIC50, values ahead:

| pIC50 | Structure (SMILES) |
| --- | --- |
| 6.19 | C[C@@H]1CN(c2cccc(NC(=O)c3ncc(NS(C)(=O)=O)nc3N3CCC4(CC3)CC4)n2)CCO1 [Example 121, 3-(6-azaspiro[2.5]octan-6-yl)-N-(6-((2R)-2-methyl-4-morpholinyl)-2-pyridinyl)-5-((methylsulfonyl)amino)-2-pyrazinecarboxamide] |
| 6.22 | CN1CCN(c2cccc(NC(=O)c3ccc(NC(C)(C)CO)nc3N3CCC4(CC3)CC4)n2)CC1 [Example 133, 2-(6-azaspiro[2.5]oct-6-yl)-6-((2-hydroxy-1,1-dimethylethyl)amino)-N-(6-(4-methyl-1-piperazinyl)-2-pyridinyl)-3-pyridinecarboxamide] |
| 6.50 | CC(C)(CO)Nc1ccc(C(=O)Nc2cccc(-c3ncco3)n2)c(N2CCC3(CC2)CC3)n1 [Example 122, 2-(6-azaspiro[2.5]oct-6-yl)-6-((2-hydroxy-1,1-dimethylethyl)amino)-N-(6-(1,3-oxazol-2-yl)-2-pyridinyl)-3-pyridinecarboxamide] |
| 6.61 | CC(C)(CO)Nc1ccc(C(=O)Nc2cccc(C3CCOCC3)n2)c(N2CCC3(CC2)CC3)n1 [Example 146, 2-(6-azaspiro[2.5]oct-6-yl)-6-((1-hydroxy-2-methyl-2-propanyl)amino)-N-(6-(tetrahydro-2H-pyran-4-yl)-2-pyridinyl)-3-pyridinecarboxamide] |
| 6.96 | CC1(C)CC(=O)N(c2cccc(NC(=O)c3ccc(NC(C)(C)CO)nc3N3CCC4(CC3)CC4)n2)C1 [Example 135, 2-(6-azaspiro[2.5]oct-6-yl)-N-(6-(4,4-dimethyl-2-oxo-1-pyrrolidinyl)-2-pyridinyl)-6-((2-hydroxy-1,1-dimethylethyl)amino)-3-pyridinecarboxamide] |
| 7.08 | CC(C)(CO)Nc1ccc(C(=O)Nc2cccc(N3CCC(F)(F)C3)n2)c(N2CCC3(CC2)CC3)n1 [Example 129, 2-(6-azaspiro[2.5]oct-6-yl)-N-(6-(3,3-difluoro-l-pyrrolidinyl)-2-pyridinyl)-6-((2-hydroxy-1,1-dimethylethyl)amino)-3-pyridinecarboxamide] |
| 7.09 | C[C@H]1CN(c2cccc(NC(=O)c3ccc(NC(C)(C)CO)nc3N3CCC4(CC3)CC4)n2)CCO1 [Example 132, 2-(6-azaspiro[2.5]oct-6-yl)-6-((2-hydroxy-1,1-dimethylethyl)amino)-N-(6-((2S)-2-methyl-4-morpholinyl)-2-pyridinyl)-3-pyridinecarboxamide] |
| 7.14 | CC(C)(CO)Nc1ccc(C(=O)Nc2cccc(N3C[C@H]4C[C@H]4C3)n2)c(N2CCC3(CC2)CC3)n1 [Example 136, N-(6-((1R,5S)-3-azabicyclo[3.1.0]hex-3-yl)-2-pyridinyl)-2-(6-azaspiro[2.5]oct-6-yl)-6-((2-hydroxy-1,1-dimethylethyl)amino)-3-pyridinecarboxamide] |
| 7.15 | CC(O)(c1ccc(C(=O)Nc2cccc(N3CCOCC3)n2)c(N2CCC3(CC2)CC3)n1)C(F)(F)F (centres unmarked) [Example 140, N-(6-morpholinopyridin-2-yl)-2-(6-azaspiro[2.5]octan-6-yl)-6-(1,1,1-trifluoro-2-hydroxypropan-2-yl)nicotinamide] |
| 7.17 | C[C@@H]1CN(c2cccc(NC(=O)c3ccc(NC(C)(C)CO)nc3N3CCC4(CC3)CC4)n2)CCO1 [Example 137, 2-(6-azaspiro[2.5]oct-6-yl)-6-((2-hydroxy-1,1-dimethylethyl)amino)-N-(6-((2R)-2-methyl-4-morpholinyl)-2-pyridinyl)-3-pyridinecarboxamide] |
| 7.22 | CC(CO)(CO)Nc1ccc(C(=O)Nc2cccc(N3CCOCC3)n2)c(N2CCC3(CC2)CC3)n1 [Example 148, 2-(6-azaspiro[2.5]oct-6-yl)-6-((1,3-dihydroxy-2-methyl-2-propanyl)amino)-N-(6-(4-morpholinyl)-2-pyridinyl)-3-pyridinecarboxamide] |
| 7.24 | C[C@](O)(c1ccc(C(=O)Nc2cccc(N3CCOCC3)n2)c(N2CCC3(CC2)CC3)n1)C(F)(F)F [Example 142, 2-(6-azaspiro[2.5]oct-6-yl)-N-(6-(4-morpholinyl)-2-pyridinyl)-6-((2S)-1,1,1-trifluoro-2-hydroxy-2-propanyl)-3-pyridinecarboxamide] |
| 7.27 | C[C@@H]1CN(c2cccc(NC(=O)c3ccc(NC(C)(CO)CO)nc3N3CCC4(CC3)CC4)n2)CCO1 [Example 147, (R)-6-((1,3-dihydroxy-2-methylpropan-2-yl)amino)-N-(6-(2-methylmorpholino)pyridin-2-yl)-2-(6-azaspiro[2.5]octan-6-yl)nicotinamide] |
| 7.28 | CC(C)(CO)Nc1ccc(C(=O)Nc2cccc(N3CCOCC3)n2)c(N2CCC3(CC2)CC3)n1 [Example 127, 2-(6-azaspiro[2.5]oct-6-yl)-6-((2-hydroxy-1,1-dimethylethyl)amino)-N-(6-(4-morpholinyl)-2-pyridinyl)-3-pyridinecarboxamide] |

— patent US12441736B2, “KIF18A inhibitors” (AMGEN INC., priority 2018, dated 2025)
